The text below walks through data of PMC5715595 (British Journal of Pharmacology, 2017).

Where two headings read alike, the source gives them in different places.

One data set relates to hERG channel trafficking. The source says: Whole‐cell patch clamp conditions were similar to the previous one with the following slight changes (biphasic pulses 2 s at +20 mV and then for 3.2 s at −50 mV applied at a 0.1 Hz).
The next data set addresses Kv11.1 (hERG) channel (Homo sapiens, UniProt Q12809). The data set is described as follows: cell-based. On the procedure: A whole‐cell patch clamp study was performed on isolated cells at room temperature. Cells were initially clamped at −80 mV, and biphasic pulses (4.8 s at +20 mV and then for 5 s at −50 mV) were applied at a 0.067 Hz frequency. […] Peak tail current amplitudes for each concentration were measured and averaged for four consecutive stimuli. Vehicle control tested in parallel evaluated the spontaneous run‐down of hERG current over time in testing conditions and the corresponding correction was applied.

The target in a further data set is T1, KV4.3 (Homo sapiens, UniProt Q9UK17).
T1 construct: expressed in transfected cells
T1 sequence (Q9UK17 1-655): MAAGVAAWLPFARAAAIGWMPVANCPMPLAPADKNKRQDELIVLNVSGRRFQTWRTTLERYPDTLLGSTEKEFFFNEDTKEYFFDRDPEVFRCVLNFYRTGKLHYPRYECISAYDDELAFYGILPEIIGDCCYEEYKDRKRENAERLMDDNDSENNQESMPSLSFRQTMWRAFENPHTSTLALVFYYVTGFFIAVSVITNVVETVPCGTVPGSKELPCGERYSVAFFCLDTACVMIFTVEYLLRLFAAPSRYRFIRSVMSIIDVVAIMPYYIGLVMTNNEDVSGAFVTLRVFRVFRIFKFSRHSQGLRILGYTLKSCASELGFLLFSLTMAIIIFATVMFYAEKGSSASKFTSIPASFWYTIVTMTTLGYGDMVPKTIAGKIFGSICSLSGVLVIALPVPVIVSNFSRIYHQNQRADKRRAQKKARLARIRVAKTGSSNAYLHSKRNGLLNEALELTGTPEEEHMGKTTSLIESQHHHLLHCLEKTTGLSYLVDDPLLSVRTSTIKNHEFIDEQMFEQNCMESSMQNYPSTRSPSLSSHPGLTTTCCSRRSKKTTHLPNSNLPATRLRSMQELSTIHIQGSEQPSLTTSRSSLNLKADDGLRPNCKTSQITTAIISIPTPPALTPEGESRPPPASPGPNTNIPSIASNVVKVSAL
The data set is described as follows: Whole-cell patch clamp on KV4.3 (Ito). The class given is cell-based. As for the experimental part: and CiPA Initiative Studies
=============================================================
In vitro studies on other ion channels […]
through NaV1.5, KV4.3, KV7.1/mink, Kir2.1, KV1.5, CaV1.2 and CaV3.2 channels.
35-mm dish culture in the conditions mentioned in standard cell culture conditions. Experiments were performed with a cell density enabling isolated cells for patch clamping. Cells were continuously superfused with extracellular medium (1-2 mL∙minute-1) at room temperature.
D-glucose 10, HEPES 10 and the final pH adjusted to 7.4±0.02 with NaOH for recording NaV1.5, KV4.3, KV7.1/mink, Kir2.1, KV1.5 and CaV3.2 currents. It was (in mM): NaCl 110, KCl 4, BaCl2 20, MgCl2 1, D-glucose 20, HEPES 10 and the final pH adjusted to 7.4 ± 0.02 with NaOH for recording the CaV1.2 current. Compositions of the intracellular solution to fill the pipette are […]
Composition of intracellular solutions used to fill pipette to record currents through NaV1.5, KV4.3, KV7.1/mink, Kir2.1, KV1.5, CaV1.2 and CaV3.2 channels
Solution to fill the pipette (mM)
Creatine-phospho kinase 50 U∙mL-1
After formation of a Gigaohm seal between the patch electrodes and individual cells (pipette resistance range: 2.0 MΩ - 7.0 MΩ; seal resistance range: > 1 GΩ) the cell membrane across the pipette tip was ruptured to assure electrical access to the cell interior (whole-cell patch-configuration). In case the quality of the seal was poor, the process of seal formation was repeated with a different cell and a new pipette. As soon as a stable seal was established outward tail currents were measured upon pulses described in the Table S2. If current density was judged to be too low for measurement, another cell was recorded. […]
voltage stimulation protocol indicated in the next table continuously run until the steady-state level of block was reached.
Stimulation conditions used to record currents through NaV1.5, KV4.3, KV7.1/mink, Kir2.1, KV1.5, CaV1.2 and CaV3.2 channels
Ion channel Holding potential Pulse / duration Frequency Reference compound […]
(resting / fast / slow sweeps at one (10 mM) inactivated concentration)
Background: In patch-clamp work, channel activity is measured electrically.

Kv11.1 (hERG) channel, sequence (Q12809 whole entry): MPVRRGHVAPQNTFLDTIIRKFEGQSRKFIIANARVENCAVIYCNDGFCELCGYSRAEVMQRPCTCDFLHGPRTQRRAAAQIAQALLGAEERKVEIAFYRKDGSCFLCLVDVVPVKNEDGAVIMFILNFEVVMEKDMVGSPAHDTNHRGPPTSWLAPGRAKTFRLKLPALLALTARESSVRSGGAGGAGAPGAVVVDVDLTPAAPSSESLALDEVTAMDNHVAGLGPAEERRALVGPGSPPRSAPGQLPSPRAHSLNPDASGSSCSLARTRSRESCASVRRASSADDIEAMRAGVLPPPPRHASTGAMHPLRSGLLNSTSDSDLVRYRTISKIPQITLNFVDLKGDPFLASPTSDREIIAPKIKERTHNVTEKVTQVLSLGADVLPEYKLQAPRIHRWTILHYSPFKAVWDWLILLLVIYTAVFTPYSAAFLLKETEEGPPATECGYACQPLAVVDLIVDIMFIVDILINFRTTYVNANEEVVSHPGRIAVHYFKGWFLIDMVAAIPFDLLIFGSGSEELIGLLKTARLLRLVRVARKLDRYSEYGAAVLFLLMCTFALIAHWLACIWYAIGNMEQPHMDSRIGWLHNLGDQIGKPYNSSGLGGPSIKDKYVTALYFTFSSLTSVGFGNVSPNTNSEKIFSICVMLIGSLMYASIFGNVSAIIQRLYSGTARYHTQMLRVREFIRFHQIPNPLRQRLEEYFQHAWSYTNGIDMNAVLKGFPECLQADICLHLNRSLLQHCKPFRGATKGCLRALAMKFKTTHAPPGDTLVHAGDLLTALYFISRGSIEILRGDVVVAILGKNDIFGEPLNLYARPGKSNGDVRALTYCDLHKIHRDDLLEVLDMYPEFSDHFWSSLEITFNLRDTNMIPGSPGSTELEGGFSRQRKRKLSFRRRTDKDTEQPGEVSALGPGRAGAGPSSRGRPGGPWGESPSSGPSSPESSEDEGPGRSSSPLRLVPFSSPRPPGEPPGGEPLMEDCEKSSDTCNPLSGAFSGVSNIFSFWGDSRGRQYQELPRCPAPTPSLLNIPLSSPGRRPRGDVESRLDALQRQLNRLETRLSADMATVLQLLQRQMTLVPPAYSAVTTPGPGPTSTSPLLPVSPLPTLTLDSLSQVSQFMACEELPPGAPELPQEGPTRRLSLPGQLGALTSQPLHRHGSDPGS

Regarding `Cl.Clc1ccc(CCCOCCCN2CCCCC2)cc1` [pitolisant, 1‐{3‐[3‐(4‐chlorophenyl)propoxy]propyl}piperidine, hydrochloride], the “effect on hERG current after long-term exposure” value in the data set on hERG channel trafficking (1 μM over 24 h, after washout) is given as “no significant effect on hERG current”. Further, in the data set on hERG channel trafficking (LC-mass spectrometry), the “change in concentration in the cell culture medium over 24 h of exposure” value is given as “no significant changes”. Further, the half-maximal inhibitory concentration (IC50) (in general, the concentration that inhibits the measured activity by half) against Kv11.1 (hERG) channel is 1.3 µM; at KV4.3 (KV4.3 Ito, Hill curve fit with Hill coefficient of one, read-out: Fitted IC50) it was 11.4 µM; at KV4.3 (Pitolisant IC50, KV4.3, Ito), approximately 10 µM. Besides, the “safety margin (hERG IC50 versus free drug concentration)” value on Kv11.1 (hERG) channel (assuming 96% protein-binding and free concentration of […] at 40 mg maximal therapeutic dose) was “around 100”.
